In patent US20050250837A1, “Use of C-Raf inhibitors for the treatment of neurodegenerative diseases” (priority 2002, published 2005):

Tested on: Akt
Experiment: Akt phosphorylation (Ser473) in neuronal cultures, Western blot
Format: cell-based, rat
Experimental: The best-studied anti-apoptotic pathway in neurons is the PI-3 kinase—Akt signaling pathway (D'Mello et al., 1997; Dudek et al., 1997; Miller et al, 1997a). IGF-1, a potent survival-promotic factor for granule neurons mediates its effect by activating the PI-3 kinase-Akt pathway (Datta et al., 1997; Dudek et al., 1997; D'Mello et al., 1998). […] Switching cerebellar granule neurons from serum-containing HK medium in which they are cultured and allowed to mature, to serum-free LK or HK medium, causes a rapid downregulation of Akt phosphorylation and activity, which can be prevented by IGF-1 (Kumari et al., 2001). […] The same blot was reprobed with an antibody against phospho-Gskβ. Also loaded on the gel were lysates from untreated cultures (maintained in medium containing serum and high K+) and a culture treated for 1 hour with 25 ng/ml IGF-1. […] GSK3βis a proapoptotic molecule that is activated during apoptosis in many neuronal and normeuronal systems. Under survival promoting conditions GSK3β is kept inactivated by phosphorylation, a modification that can be induced by Akt. […] Another proapoptotic molecule that is phosphorylated and inactivated by Akt is the transcription factor, Forkhead (Linseman et al., 2002). […] Switching of neurons to LK medium leads to a rapid downregulation of Akt activity within 2 hours.
For whole-cell lysates, the culture medium was discarded, the neurons washed twice with ice-cold phosphate-buffered saline (PBS), and lysed in lysis buffer (1% Triton, 20 mM Tris-HCl (pH 7.5), 150 mM NaCl, 1 mM Na2EDTA, 1 mM EGTA, 2.5 mM sodium pyrophosphate, 1 mM beta-glycerophosphate, 1 mM Na3VO4, 1 μg/ml leupeptin and 1× protease inhibitor mixture). Protein concentrations were measured using a Bradford protein assay kit (Bio-Rad), and equivalent amounts of protein were mixed with 6×SDS-PAGE sample buffer. […] After staining with Ponceau S to verify uniformity of protein loads/transfer, the membranes were analyzed for immunoreactivity. […]

Compound: O=C1Nc2ccc(I)cc2C1=Cc1cc(Br)c(O)c(Br)c1 [GW5074, 5-Iodo-3-[(3,5-dibromo-4-hydroxyphenyl)methylene]-2-indolinone]
- Akt phosphorylation after LK treatment (LK + 1 uM GW5074, 1 and 3 hours): delays the downregulation of Akt phosphorylation
- de novo Akt activation after downregulation in LK (added to cultures already switched to LK): does not lead to Akt activation
